Measurements taken from ChEMBL document CHEMBL1201862, “PubChem BioAssay data set” (2004).
Each block holds one compound with its values, some of them ahead of it. Calls of active or inactive are those of the source.

Legend:
[1] = system: A-375; test: MITF: Counter assay: A375 proliferation Measured in Cell-Based System Using Plate Reader - 2084-03_Inhibitor_Dose_DryPowder_Activity. [Related pubchem assays (depositor defined):AID488944]; format: functional; details: Homo sapiens
[2] = system: A-375; test: proliferation inhibition in MITF-low A375 cells – cell-based, cherry-pick samples, set 2, counter-screen for MITF modulator project, dose response (AID 540335); format: functional; details: Homo sapiens
[3] = system: H9c2; test: cells; format: functional, cell-based; details: Rattus norvegicus, H9c2, Myocardium;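 further: confirmatory concentration-response retest of ultra-high-throughput screening hits for modulation of myocardial damage; cell death induced by hydrogen peroxide oxidative stress; compound pretreatment for 60 min then peroxide exposure for 2 h; potency is for protecting the cells against peroxide damage rather than for killing them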
[4] = molecular target: T1, Type-1 angiotensin II receptor (Homo sapiens, UniProt P30556); test: antagonism of angiotensin II type 1 receptor – cell-based, uHTS hits, selectivity assay for APJ receptor antagonist project, dose response (AID 463214); format: functional;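 further: antagonist potency against angiotensin II stimulated AT1 response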
T1 sequence (P30556 whole entry): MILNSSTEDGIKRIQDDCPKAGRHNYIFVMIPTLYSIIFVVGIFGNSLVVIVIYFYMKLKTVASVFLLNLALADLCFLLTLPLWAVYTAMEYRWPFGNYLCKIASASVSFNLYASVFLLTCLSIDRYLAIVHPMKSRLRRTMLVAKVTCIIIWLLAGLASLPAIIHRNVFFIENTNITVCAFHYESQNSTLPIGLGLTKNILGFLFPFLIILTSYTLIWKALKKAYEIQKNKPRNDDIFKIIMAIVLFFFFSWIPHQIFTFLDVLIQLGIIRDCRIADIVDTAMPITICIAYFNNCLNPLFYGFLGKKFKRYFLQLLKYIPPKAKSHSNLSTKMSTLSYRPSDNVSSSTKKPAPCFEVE

[5] = Luminescence Cell-Based Dose Retest to Confirm Inhibitors of Cancer Stem Cells. [Related pubchem assays (depositor defined):AID2717, AID2721]; format: functional; details: Homo sapiens
[6] = molecular target: Beta-galactosidase (Escherichia coli, UniProt Q8VNN2); test: PubChem AID 485352; format: functional
[7] = system: INS1; test: INS-1E survival protection against cytokine death – cell-based, luminescence, retest, dose response (AID 449756); format: functional; details: Rattus norvegicus;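 further: cell death triggered by IL-1 beta plus TNF-alpha plus IFN-gamma mixture; protective hits raise ATP signal compared with cytokine alone wells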
[8] = system: HEK293; test: cells; format: functional, cell-based; details: Homo sapiens
[9] = molecular target: T2, Nuclear receptor subfamily 0 group B member 1 (Homo sapiens, UniProt P51843); test: Luminescence-based cell-based high throughput dose response assay for inhibitors of the orphan nuclear receptor subfamily 0, group B, member 1 (DAX1; NR0B1). [Related pubchem assays (depositor defined):AID504766, AID504790]; format: functional
T2 sequence (P51843 whole entry): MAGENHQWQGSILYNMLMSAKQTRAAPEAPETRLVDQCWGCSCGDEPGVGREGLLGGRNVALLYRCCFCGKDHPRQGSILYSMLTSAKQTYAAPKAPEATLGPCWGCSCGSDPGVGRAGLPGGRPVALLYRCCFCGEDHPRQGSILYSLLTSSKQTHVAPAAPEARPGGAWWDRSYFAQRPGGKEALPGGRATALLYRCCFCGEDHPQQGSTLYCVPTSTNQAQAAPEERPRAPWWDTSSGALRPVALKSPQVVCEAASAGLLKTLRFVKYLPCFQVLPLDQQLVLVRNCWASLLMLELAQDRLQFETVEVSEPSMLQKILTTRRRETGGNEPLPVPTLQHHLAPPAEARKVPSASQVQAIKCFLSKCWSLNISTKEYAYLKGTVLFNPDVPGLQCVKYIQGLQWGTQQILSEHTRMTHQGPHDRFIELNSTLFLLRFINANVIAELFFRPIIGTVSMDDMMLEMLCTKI

[10] = molecular target: 5-hydroxytryptamine receptor 5A (Homo sapiens, UniProt P47898); test: Counterscreen for agonists of OPRM1-OPRD1 heterodimerization: luminescence-based cell-based high throughput dose response assay to identify agonists of 5-hydroxytryptamine (serotonin) 5A receptor (HTR5A). [Related pubchem assays (depositor defined):AID504326, AID504355, AID504692, AID504904, AID504905]; format: functional
[11] = molecular target: Delta-type opioid receptor (Homo sapiens, UniProt P41143); test: Counterscreen for agonists of heterodimerization of the mu 1 (OPRM1) and delta 1 (OPRD1) opioid receptors: Luminescence-based cell-based high throughput dose response assay to identify agonists of OPRD1 homodimerization. [Related pubchem assays (depositor defined):AID504326, AID504355, AID504692, AID504904, AID504905]; format: functional
[12] = molecular target: Mu-type opioid receptor (Homo sapiens, UniProt P35372); test: Counterscreen for agonists of heterodimerization of the mu 1 (OPRM1) and delta 1 (OPRD1) opioid receptors: Luminescence-based cell-based high throughput dose response assay to identify agonists of OPRM1 homodimerization.; format: functional;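 further: U2OS cells expressing OPRM1 and beta-arrestin as split beta-galactosidase partners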
[13] = molecular target: T3, Short transient receptor potential channel 4 (Mus musculus, UniProt Q9QUQ5); test: calcium entry via TRPC4 opening agents – cell-based, HEK293 TRPC4/mu-opioid, Fluo-4 calcium, dose response (AID 434937); format: functional
T3 sequence (Q9QUQ5 whole entry): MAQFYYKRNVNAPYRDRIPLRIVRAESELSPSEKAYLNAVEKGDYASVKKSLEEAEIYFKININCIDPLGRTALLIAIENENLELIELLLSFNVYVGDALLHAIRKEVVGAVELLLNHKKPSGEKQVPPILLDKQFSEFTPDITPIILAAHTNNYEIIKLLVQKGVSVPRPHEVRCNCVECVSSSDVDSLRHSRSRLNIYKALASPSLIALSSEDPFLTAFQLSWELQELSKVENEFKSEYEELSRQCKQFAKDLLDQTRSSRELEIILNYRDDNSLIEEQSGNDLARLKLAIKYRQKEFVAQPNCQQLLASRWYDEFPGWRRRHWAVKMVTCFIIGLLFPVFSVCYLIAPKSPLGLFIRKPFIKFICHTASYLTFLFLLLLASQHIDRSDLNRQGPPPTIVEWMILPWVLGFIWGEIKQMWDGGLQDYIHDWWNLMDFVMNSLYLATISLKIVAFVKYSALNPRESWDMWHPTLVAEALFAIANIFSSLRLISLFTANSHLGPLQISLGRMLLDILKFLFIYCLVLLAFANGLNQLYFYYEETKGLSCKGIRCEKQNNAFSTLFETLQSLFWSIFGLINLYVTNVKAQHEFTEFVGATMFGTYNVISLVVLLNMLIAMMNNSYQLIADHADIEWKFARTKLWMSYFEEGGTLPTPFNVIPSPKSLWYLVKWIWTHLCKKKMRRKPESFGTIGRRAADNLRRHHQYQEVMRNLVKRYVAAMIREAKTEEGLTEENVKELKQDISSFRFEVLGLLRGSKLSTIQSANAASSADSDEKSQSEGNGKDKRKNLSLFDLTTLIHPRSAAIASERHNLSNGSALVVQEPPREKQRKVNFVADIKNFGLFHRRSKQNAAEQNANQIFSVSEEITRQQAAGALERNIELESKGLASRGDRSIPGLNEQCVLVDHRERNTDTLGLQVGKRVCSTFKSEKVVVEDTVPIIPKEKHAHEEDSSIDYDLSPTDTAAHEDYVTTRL

[14] = molecular target: T4, Calpain-2 catalytic subunit (Sus scrofa, UniProt P43367); test: m-calpain protease blockers, concentration series – biochemical, fluorogenic peptide substrate, dose response (AID 1420); format: functional
T4 sequence (P43367 whole entry): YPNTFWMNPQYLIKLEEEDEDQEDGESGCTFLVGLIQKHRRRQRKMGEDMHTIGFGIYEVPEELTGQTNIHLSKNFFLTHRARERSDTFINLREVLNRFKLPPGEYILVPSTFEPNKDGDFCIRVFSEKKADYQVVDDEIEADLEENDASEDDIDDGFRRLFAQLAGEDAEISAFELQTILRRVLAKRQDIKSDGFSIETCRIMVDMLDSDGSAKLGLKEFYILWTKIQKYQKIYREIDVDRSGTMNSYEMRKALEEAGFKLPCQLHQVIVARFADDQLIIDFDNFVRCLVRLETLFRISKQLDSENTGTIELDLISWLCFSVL

[15] = system: HEK293; test: SAR Analysis of small molecule inhibitors of B-cell specific antigen receptor-induced NF-kB activation in a HEK-293T cell line using a luminescence assay - Set 2. [Related pubchem assays (depositor defined):AID435022, AID435025, AID489021]; format: functional, cell-based; details: Homo sapiens
[16] = system: Jurkat; test: SAR Analysis of small molecule inhibitors of […] specific antigen receptor-induced NF-kB activation in a Jurkat cell line using a luminescence assay - Set 3. [Related pubchem assays (depositor defined):AID435022, AID435025, AID465]; format: functional, cell-based; details: Homo sapiens
[17] = system: HEK293; test: HEK293T cell viability loss, resazurin readout – resazurin fluorescence, cytotoxicity control for NF-kB activator project, SAR follow-up (AID 493251); format: functional, cell-based; details: Homo sapiens

Sequence of Beta-galactosidase (Q8VNN2 whole entry): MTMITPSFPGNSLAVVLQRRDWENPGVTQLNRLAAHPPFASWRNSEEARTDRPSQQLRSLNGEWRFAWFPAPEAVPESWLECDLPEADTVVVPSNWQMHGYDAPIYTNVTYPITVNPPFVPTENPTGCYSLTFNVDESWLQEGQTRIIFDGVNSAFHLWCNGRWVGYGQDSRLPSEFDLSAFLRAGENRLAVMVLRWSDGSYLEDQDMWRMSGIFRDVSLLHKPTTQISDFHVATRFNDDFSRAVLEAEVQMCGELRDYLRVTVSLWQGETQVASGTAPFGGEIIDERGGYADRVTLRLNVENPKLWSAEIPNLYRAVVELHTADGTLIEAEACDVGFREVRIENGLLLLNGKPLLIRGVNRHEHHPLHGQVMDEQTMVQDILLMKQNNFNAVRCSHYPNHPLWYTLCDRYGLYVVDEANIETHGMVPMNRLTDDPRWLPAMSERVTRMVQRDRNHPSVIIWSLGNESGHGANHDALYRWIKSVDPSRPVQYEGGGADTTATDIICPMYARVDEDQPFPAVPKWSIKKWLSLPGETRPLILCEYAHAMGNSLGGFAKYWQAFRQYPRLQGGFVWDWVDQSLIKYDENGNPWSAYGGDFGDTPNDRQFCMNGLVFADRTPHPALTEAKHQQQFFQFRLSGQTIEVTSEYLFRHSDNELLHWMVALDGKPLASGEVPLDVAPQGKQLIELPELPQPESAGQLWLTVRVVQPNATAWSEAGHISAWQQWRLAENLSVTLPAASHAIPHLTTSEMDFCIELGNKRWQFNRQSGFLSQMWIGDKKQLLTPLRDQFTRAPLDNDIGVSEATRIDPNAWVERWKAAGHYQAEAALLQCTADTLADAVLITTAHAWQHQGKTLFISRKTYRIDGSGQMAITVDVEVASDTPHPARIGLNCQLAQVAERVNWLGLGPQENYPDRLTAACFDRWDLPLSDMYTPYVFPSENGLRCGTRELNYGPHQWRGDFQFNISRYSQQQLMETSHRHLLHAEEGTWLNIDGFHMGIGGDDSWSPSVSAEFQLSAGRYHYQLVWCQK
Sequence of Delta-type opioid receptor (P41143 whole entry): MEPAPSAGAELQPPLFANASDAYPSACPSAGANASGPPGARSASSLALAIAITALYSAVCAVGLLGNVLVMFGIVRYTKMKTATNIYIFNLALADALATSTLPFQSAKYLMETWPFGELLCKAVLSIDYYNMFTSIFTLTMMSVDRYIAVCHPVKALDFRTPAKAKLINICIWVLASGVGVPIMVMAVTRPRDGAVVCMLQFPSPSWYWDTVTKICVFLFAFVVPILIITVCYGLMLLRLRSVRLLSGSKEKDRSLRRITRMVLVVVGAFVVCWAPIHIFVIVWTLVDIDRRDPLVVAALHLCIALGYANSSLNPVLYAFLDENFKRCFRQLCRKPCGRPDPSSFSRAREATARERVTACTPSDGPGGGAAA
Sequence of Mu-type opioid receptor (P35372 whole entry): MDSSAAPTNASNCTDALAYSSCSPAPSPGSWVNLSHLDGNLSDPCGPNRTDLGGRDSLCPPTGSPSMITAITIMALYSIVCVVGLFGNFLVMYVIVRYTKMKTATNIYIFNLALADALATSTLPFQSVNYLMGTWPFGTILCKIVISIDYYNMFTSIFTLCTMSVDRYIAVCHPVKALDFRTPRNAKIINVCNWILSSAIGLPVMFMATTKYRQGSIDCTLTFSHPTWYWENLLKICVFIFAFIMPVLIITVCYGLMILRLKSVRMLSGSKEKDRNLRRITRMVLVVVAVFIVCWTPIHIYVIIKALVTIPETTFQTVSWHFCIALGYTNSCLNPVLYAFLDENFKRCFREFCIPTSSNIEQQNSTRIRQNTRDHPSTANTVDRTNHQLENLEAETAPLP
Sequence of 5-hydroxytryptamine receptor 5A (P47898 whole entry): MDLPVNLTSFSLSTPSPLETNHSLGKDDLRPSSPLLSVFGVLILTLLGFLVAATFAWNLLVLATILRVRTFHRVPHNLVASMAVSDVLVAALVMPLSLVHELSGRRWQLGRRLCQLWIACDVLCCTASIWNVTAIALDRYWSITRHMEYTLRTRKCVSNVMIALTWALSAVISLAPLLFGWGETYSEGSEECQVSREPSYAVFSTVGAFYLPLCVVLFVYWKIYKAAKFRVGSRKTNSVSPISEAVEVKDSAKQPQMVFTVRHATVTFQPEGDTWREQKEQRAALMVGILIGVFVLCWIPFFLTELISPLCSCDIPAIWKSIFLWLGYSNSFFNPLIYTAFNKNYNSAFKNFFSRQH

Compound: Cc1ccc2oc(=O)n(CCCOc3ccccc3)c2c1
AC50 [1]: > 35 µM (active)
AC50 [2]: > 35 µM (active)

Compound: CC1(C)Cc2c(c(N3CCOCC3)nc3sc4c(NN)ncnc4c23)CS1
IC50 [3]: 10 µM (active)
IC50 [4]: 16.8 µM (active)
AC50 [5]: 7.43 µM (active)
EC50 [6]: > 40 µM (inactive)
AC50 [7]: 2.08 µM (active)

Compound: COc1ccccc1/C=N\Nc1ccccc1[N+](=O)[O-]
IC50 [8]: > 67.6 µM (inactive)
IC50 [9]: > 67.6 µM (inactive)

EC50 [10]: > 92.5 µM (inactive)
EC50 [11]: 26.9 µM (inactive)
EC50 [12]: 3.64 µM (active)
EC50 [13]: 0.0333 µM (active)
Compound: CN(C)C(CN=C(S)Nc1ccccc1Cl)c1cccnc1 (stereo unspecified)

Compound: Cc1cccc(OCC(=O)Nc2cccc(O)c2)c1
AC50 [1]: > 35 µM (active)
AC50 [2]: > 35 µM (active)

IC50 [4]: > 40 µM (not active)
EC50 [6]: > 40 µM (inactive)
IC50 [14]: 9.89 µM (not active)
Compound: CCN(CC)c1ccc(C(=O)NC(=S)Nc2cc(S(=O)(=O)N3CCOCC3)ccc2-n2cncn2)cc1

Compound: C=CCNC(=O)CCc1nc(-c2ccc(C(C)(C)C)cc2)no1
IC50 [15]: 5.3 µM (active)
IC50 [16]: 25.2 µM (inactive)
IC50 [17]: > 80 µM (inactive)

Compound: C/C(=N\NC(=S)NC1CCCCC1)c1ccc(Cl)c(Cl)c1
IC50 [8]: > 67.5 µM (inactive)
IC50 [9]: > 67.5 µM (inactive)

Compound: CCOc1ccc(-c2nc(CSCC(=O)NCc3ccc(C)cc3)c(C)o2)cc1
IC50 [15]: > 80 µM (inactive)
IC50 [16]: 48.9 µM (inactive)
IC50 [17]: > 80 µM (inactive)
